Data set [1] concerns HCT-116 cells (colon). As to the kind of experiment: MTT cell viability assay, HCT-116. Conditions: Homo sapiens, HCT-116; 48 h, MTT, mean ± SD; read-out: IC50 HCT-116 (colon). The format is cell-based. The protocol: (§1) Cell lines were purchased from the American Type Culture Collection (ATCC). MCF-7, HTB-54, BEAS-2B and 184B5 cell lines were grown in RPMI 1640 medium (Gibco) supplemented with 10% fetal bovine serum (FBS; Gibco), 100 units/mL penicillin, and […] streptomycin (Gibco). HT-29 and HCT-116 cell lines was cultured in McCoy’s 5A (Gibco), 10% FBS, 100 units/mL penicillin, and 100 μg/mL streptomycin. Cells were maintained at 37 °C and 5% CO2. Culture medium was replaced every three days.
(§2) A cell viability assay of each compound was carried out using an MTT assay. Each selenourea was dissolved in dimethyl sulfoxide (DMSO) at a concentration of 0.01 M. Serial dilutions were prepared with non-supplemented culture medium. Cytotoxic activity of each selenourea was determined at two different concentrations (10 and 50 µM) in MCF-7, HTB-54, and HT-29 cells. In addition, selected compounds were tested at seven different concentrations (0.1, 1, 5, 10, 25, 50, 100 µM) on MCF-7, HT-29, HCT-116, HTB-54, 184B5, and BEAS-2B cells. The number of passages before defrosting the cells was 3, and they were kept under culture up to a maximum of 15.
(§3) Briefly, 1 × 10^4 cells/well were grown in 96-well plates for 24 h. Then, these cells were incubated with either DMSO (negative control) at 5 µM or a different concentration of each tested selenourea for 48 h. A volume of 20 µL of MTT was added 150 min before the termination point to measure cellular viability. After this time, culture medium was removed. The resultant formazan crystals were dissolved in 50 µL of DMSO, and absorbance was measured at 570 nm. Results are expressed as IC50, the half maximal inhibitory concentration. This value was calculated using GraphPad Prism 7 software by nonlinear curve fitting. Furthermore, the selectivity index (SI) was calculated as the ratio of the IC50 values determined for the non-malignant and the tumoral cells (IC50 (184B5)/IC50 (MCF-7) or (IC50 (BEAS-2B)/IC50 (HTB-54). Data were obtained from at least three independent experiments performed in triplicates.

Data set [2] deals with HT-29 cells (colon carcinoma). As to the kind of experiment: MTT cell viability assay, HT-29. The format is cell-based. To be noted: Homo sapiens, 48 h, MTT; for IC50: HT-29, mean ± SD, read-out: IC50 HT-29 (colon); for viability at 10 µM: HT-29, 10 µM; for viability at 10 µM / viability at 50 µM: read-out: cell viability, percentage of live cells; for viability at 50 µM: HT-29, 50 µM. The protocol:
as §1, §2, §3
(§4) The cytotoxic effects of synthesized compounds were evaluated against three human cancer cell lines: breast adenocarcinoma (MCF-7), lung adenocarcinoma (HTB-54), and colon carcinoma (HT-29), using a 3-[4,5-dimethylthiazol-2-yl]-2,5-diphenyltetrazolium bromide (MTT) assay. Firstly, the compounds were screened at two doses (50 and 10 µM) and after 48 h of treatment. The results are summarized in Figure 4 and are presented as percentages of growth inhibition related to control.

The subject of data set [3] is MCF-7 cells (breast adenocarcinoma). The experiment in a line: MTT cell viability assay, MCF-7. To be noted: Homo sapiens, MCF7, 48 h, MTT; for IC50: mean ± SD, read-out: IC50 MCF-7 (breast); for viability at 10 µM: MCF-7, 10 µM; for viability at 10 µM / viability at 50 µM: read-out: cell viability, percentage of live cells; for viability at 50 µM: MCF-7, 50 µM. The format is cell-based, human. The protocol:
as §1, §2, §3, §4

Data set [4] relates to HTB-54 cells (lung adenocarcinoma). The experiment in a line: MTT cell viability assay, HTB-54. The format is cell-based, human. To be noted: Homo sapiens, 48 h, MTT; for IC50: HTB-54, mean ± SD, read-out: IC50 HTB-54 (lung); for viability at 10 µM: HTB-54, 10 µM; for viability at 10 µM / viability at 50 µM: read-out: cell viability, percentage of live cells; for viability at 50 µM: HTB-54, 50 µM. As to the method: as §1, §2, §3, §4

Data set [5] in a line: ABTS radical scavenging assay. To be noted: for ABTS radical scavenging activity / ABTS radical scavenging activity compared with Trolox: 0.003 mg/mL, 60 min; for ABTS radical scavenging kinetics: 0.03 mg/mL. The protocol:
(§5) From all the methods available for the prediction of the antioxidant properties, DPPH^● and ABTS^●+ assays were chosen according to their simplicity, accessibility, and effectiveness for a fast prediction of radical scavenging activities in vitro. The radical scavenging capacity of the novel selenoureas was determined by DPPH^● and ABTS^●^+ assays. Measurements were recorded on a BioTeck PowerWave XS spectrophotometer (BioTeck Instruments, Winooski (VT), USA) and the data were collected using KCJunior software (BioTeck Instruments, Winooski (VT), USA).
As well as DPPH, ABTS radical scavenging assay is a colorimetric method. ABTS (2,2′-azino-bis(3-ethylbenzothiazoline-6-sulfonic acid) was dissolved in deionized water at 1 mg/mL and oxidized to ABTS^●+ with potassium persulfate (2.45 mM final concentration). This oxidation process is not instantaneous, and the reaction mixture was kept in the dark overnight at room temperature. After ABTS^●+ radical was generated, the ABTS^●+ solution was diluted with 50% ethanol until an absorbance of 0.70 ± 0.02 at 734 nm for measurements was achieved. Stock solution of 1 mg/mL in absolute ethanol was prepared for each selenourea, and different dilutions were prepared to reach the final concentration, when 20 µL of this solution were added to 180 µL of the diluted ABTS^●+. The absorbance at 734 nm was recorded using 50% ethanol as blank. Trolox and Asc were used as positive controls. All determinations were carried out in triplicate. Same time intervals as in the DPPH assay were also measured. The ability to scavenge ABTS^●+ was calculated using the following formula:(2) % ABTS radical scavenging=Acontrol − Asample/Acontrol × 100 where Acontrol refers to the absorbance of the negative control and Asample refers to the absorbance of the tested compounds. The results are expressed as percentage of ABTS radical scavenging ± SD.
In order to confirm the antioxidant activity of the selenoureas, we performed an additional ABTS (2,2′-azino-bis(3-ethylbenzothiazoline-6-sulfonic acid) radical scavenging assay. Following the results obtained in the DPPH assay, this experiment was performed at 0.03 and 0.003 mg/mL. Measurements were recorded after 0′, 6′ and 60′ of incubation with ABTS. For comparison purposes, Trolox and ascorbic acid were used as references. The remarkable results are summarized in Figure 3.

Data set [6] is described as follows: DPPH radical scavenging assay. To be noted: for DPPH radical scavenging kinetics: 0.03 mg/mL, time-point 0 min. The protocol:
as §5
A DPPH assay was performed, as described by Svinyarov. Stock solutions of 1 mg/mL were initially prepared for each selenourea in methanol and this solution was used for the preparation of the different concentrations employed in the assay. Ascorbic acid (Asc) was used as positive control due to the literature reports that this derivative is a potent antioxidant and radical scavenger. A volume of 100 µL from a previously prepared stock solution (preserved in dark and daily prepared) of DPPH (100 µM) in methanol were added to 100 µL of the methanolic selenoureas solutions prepared previously, and the antioxidant activity these compounds was assessed by its ability to decolorize DPPH● radical (purple color in methanol) to DPPHH (colorless). Thus, radical scavenging activity was estimated by the decrease in the absorbance at 517 nm. Determinations were recorded at different time-points. All the measurements were carried out in triplicate. Results are expressed as the percentage of the radicals scavenged, calculated using the following formula:(1) % DPPH radical scavenging=Acontrol − Asample/Acontrol × 100 where Acontrol refers to the absorbance of the negative control and Asample refers to the absorbance of the tested compounds. Results are expressed as percentage of DPPH radical scavenging ± SD.
In order to determine the radical scavenging of these newly synthesized selenourea derivatives, the DPPH assay was firstly employed. Measurements were performed at four different concentrations ranging from 0.0003 to 0.03 mg/mL, and collected at time-points between 0 min and 120 min (Figures S81–S100). Results are presented as the percentage of inhibition for DPPH radical scavenging activity.

The record followed here is paper PMC8156206, “Novel N,N′-Disubstituted Selenoureas as Potential Antioxidant and Cytotoxic Agents” (Antioxidants, 2021).

For `Clc1ccc(NC(=[Se])NCc2ccco2)cc1` [Compound 1d], the melting point is 128 °C. Further, the 50% inhibitory concentration (IC50) in data set [1] stood at 7.8 ± 0.56 µM. Further, in data set [2], the IC50 was found to be 8.07 ± 3.77 µM, the viability at 10 µM was 48.6% and the viability at 50 µM was determined as 35%. Besides, in data set [3], the IC50 is over 10 µM, the viability at 10 µM amounted to 78.2% and the viability at 50 µM was determined as 27.9%. Also, in data set [4], the IC50 is over 10 µM, the viability at 10 µM amounted to 52.2% and the viability at 50 µM worked out at 27.3%.
Turning to `COc1ccc(NC(=[Se])NCc2nccs2)cc1` [Compound 2c], the melting point is 150 °C. In addition, the “ABTS radical scavenging activity” value in data set [5] is reported as “above 90%”. Moreover, in data set [2], the viability at 10 µM is 88.9% and the viability at 50 µM stood at 53.1%. Also, in data set [3], the viability at 10 µM turned out to be 60% and the viability at 50 µM was found to be 33.1%. For the same molecule, in data set [4], the viability at 10 µM turned out to be 58.5% and the viability at 50 µM came to 30.3%. The “DPPH radical scavenging capacity compared with ascorbic acid” value in data set [6] (at lower concentrations) is “greater radical scavenging capacity than ascorbic acid”.
As to `N#Cc1ccc(NC(=[Se])NCc2nccs2)cc1` [Compound 2e], the melting point turned out to be 152 °C. Further, the “ABTS radical scavenging activity” value in data set [5] was “above 90%”. Moreover, in data set [2], the viability at 10 µM was 57.9% and the viability at 50 µM came to 59.2%. Moreover, in data set [3], the viability at 10 µM is 62.3% and the viability at 50 µM was found to be 43.6%. In data set [4], the viability at 10 µM is 66.6% and the viability at 50 µM is 40.1%. The “DPPH radical scavenging kinetics” value in data set [6] is reported as “reaching the maximum activity at time-point 0′”.
For the molecule `O=c1ccc2cc(NC(=[Se])Nc3ccccc3)ccc2o1` [Compound 3a], the melting point turned out to be 169 °C. Also, in data set [1], the IC50 was found to be 5.86 ± 0.52 µM. In data set [2], the IC50 is 6.49 ± 1.58 µM, the viability at 10 µM was 47.5% and the viability at 50 µM was found to be 30.2%. Moreover, in data set [3], the IC50 was over 10 µM, the viability at 10 µM turned out to be 53.5% and the viability at 50 µM stood at 29.8%. In data set [4], the IC50 was over 10 µM, the viability at 10 µM amounted to 66% and the viability at 50 µM turned out to be 10.3%. For the same molecule, in data set [6], the “DPPH radical scavenging kinetics” value is “reaching the maximum activity at time-point 0′”.
With `N#Cc1ccc(NC(=[Se])Nc2ccc3oc(=O)ccc3c2)cc1` [Compound 3e], the melting point was found to be 140 °C. Further, in data set [5], the “ABTS radical scavenging activity compared with Trolox” value was “significant lower radical scavenging activity than Trolox”. In data set [2], the viability at 10 µM was found to be 66.6% and the viability at 50 µM is 32.2%. For the same molecule, in data set [3], the viability at 10 µM stood at 59.7% and the viability at 50 µM was determined as 31.1%. In data set [4], the viability at 10 µM was found to be 60.8% and the viability at 50 µM worked out at 17.8%. In addition, in data set [6], the “DPPH radical scavenging kinetics” value is listed as “reaching the maximum activity at time-point 0′”.
Molecule `CCCCNC(=[Se])Nc1ccc(C#N)cc1` [Compound 4e] returned a melting point of 145 °C. For the same molecule, in data set [2], the viability at 10 µM came out at 60.7% and the viability at 50 µM worked out at 46.3%. In data set [3], the viability at 10 µM stood at 70.7% and the viability at 50 µM amounted to 39%. For the same molecule, in data set [4], the viability at 10 µM was determined as 74.6% and the viability at 50 µM was found to be 29.7%. The “DPPH radical scavenging kinetics” value in data set [6] was “reaching the maximum activity at time-point 0′”.
The molecule `CCCCCCNC(=[Se])Nc1ccc(Cl)cc1` [Compound 5d] yielded a melting point of 110 °C. Further, the “ABTS radical scavenging activity compared with Trolox” value in data set [5] was “significant lower radical scavenging activity than Trolox”. Moreover, in data set [2], the viability at 10 µM is 69.1% and the viability at 50 µM came out at 42.5%. In data set [3], the viability at 10 µM worked out at 81.3% and the viability at 50 µM was 17.3%. Besides, in data set [4], the viability at 10 µM came to 81.4% and the viability at 50 µM is 57.2%.
`CCCCCCNC(=[Se])Nc1ccc(C#N)cc1` [Compound 5e, N-hexyl-N´-(4-cyanophenyl)selenourea] had a melting point of 125 °C. Moreover, in data set [2], the viability at 10 µM worked out at 59.1% and the viability at 50 µM came to 40.4%. Also, in data set [3], the viability at 10 µM amounted to 68.5% and the viability at 50 µM turned out to be 14.7%. In data set [4], the viability at 10 µM worked out at 80.2% and the viability at 50 µM came out at 23.3%. In addition, the “DPPH radical scavenging kinetics” value in data set [6] is listed as “reaching the maximum activity at time-point 0′”.
In the case of `Cc1c(C)c2c(c(C)c1O)CCC(C)(C(=O)O)O2` (stereo not shown) [Trolox, reference compound], the “ABTS radical scavenging kinetics” value in data set [5] is listed as “reached the maximal ABTS radical scavenging activity quickly”.
The same measure, in the same setting: the value for `O=C1O[C@H]([C@@H](O)CO)C(O)=C1O` [ascorbic acid, reference compound] was “reached the maximal ABTS radical scavenging activity quickly”.
